Species on record: Rattus norvegicus
Test: Open TG-GATES - Regimen: Single
Assay type: toxicity, organism-based, Sprague-Dawley
Parameters: regimen Single, gender Male, age 6 weeks
Conditions: in vivo, po, 100 mg/kg, route gavage, dose level High; for APTT / Bas / Eos / Fbg / Hb / Ht / Lym / MCH / MCHC / MCV / Mono / Neu / PT / Plat / RBC / Ret / WBC: tissue Blood; for KIDNEY_L / KIDNEY_R / KIDNEY_TOTAL: tissue Kidney; for LIVER: tissue Liver; for A/G / ALP / ALT / AST / BUN / CRE / Ca / Cl / DBIL / GLC / IP / K / LDH / Na / PL / RALB / TBIL / TC / TG / TP / gamma-GTP: tissue Plasma

SMILES: CCN(CC)N=O [N-NITROSODIETHYLAMINE]
- TERMINAL_BW (3 h): 221.2 g
- APTT (3 h): 19.4 s
- Bas (3 h): 0%
- Eos (3 h): 1%
- Fbg (3 h): 208.2 mg/dL
- Hb (3 h): 13.2 g/dL
- Ht (3 h): 38.5%
- Lym (3 h): 77.2%
- MCH (3 h): 21.5 pg
- MCHC (3 h): 34.2%
- MCV (3 h): 62.7 fL
- Mono (3 h): 1.4%
- Neu (3 h): 19.2%
- PT (3 h): 12 s
- Plat (3 h): 113.8 x10_4/uL
- RBC (3 h): 613.8 x10_4/ul
- Ret (3 h): 7.2%
- WBC (3 h): 60.2 x10_2/uL
- KIDNEY_L (3 h): 1 g
- KIDNEY_R (3 h): 1 g
- KIDNEY_TOTAL (3 h): 2 g
- LIVER (3 h): 9 g
- A/G (3 h): 1.7
- ALP (3 h): 781 IU/L
- ALT (3 h): 39.6 IU/L
- AST (3 h): 73.6 IU/L
- BUN (3 h): 9.8 mg/dL
- CRE (3 h): 0.4 mg/dL
- Ca (3 h): 10.2 mg/dL
- Cl (3 h): 102.2 meq/L
- DBIL (3 h): 0.056 mg/dL
- GLC (3 h): 191 mg/dL
- IP (3 h): 8.5 mg/dL
- K (3 h): 3.5 meq/L
- LDH (3 h): 162 IU/L
- Na (3 h): 140.8 meq/L
- PL (3 h): 124.8 mg/dL
- RALB (3 h): 3.4 g/dL
- TBIL (3 h): 0.1 mg/dL
- TC (3 h): 85 mg/dL
- TG (3 h): 24.2 mg/dL
- TP (3 h): 5.5 g/dL
- gamma-GTP (3 h): 1.2 IU/L
- TERMINAL_BW (6 h): 218 g
- APTT (6 h): 18.8 s
- Bas (6 h): 0.4%
- Eos (6 h): 0.8%
- Fbg (6 h): 214.6 mg/dL
- Hb (6 h): 13.2 g/dL
- Ht (6 h): 38.2%
- Lym (6 h): 80.2%
- MCH (6 h): 21.2 pg
- MCHC (6 h): 34.6%
- MCV (6 h): 61.4 fL
- Mono (6 h): 2%
- Neu (6 h): 16%
- PT (6 h): 12.7 s
- Plat (6 h): 142.5 x10_4/uL
- RBC (6 h): 623 x10_4/ul
- Ret (6 h): 6.6%
- WBC (6 h): 83.6 x10_2/uL
- KIDNEY_L (6 h): 1 g
- KIDNEY_R (6 h): 1 g
- KIDNEY_TOTAL (6 h): 2 g
- LIVER (6 h): 9.8 g
- A/G (6 h): 1.6
- ALP (6 h): 784.2 IU/L
- ALT (6 h): 38.2 IU/L
- AST (6 h): 73.4 IU/L
- BUN (6 h): 12 mg/dL
- CRE (6 h): 0.4 mg/dL
- Ca (6 h): 10.2 mg/dL
- Cl (6 h): 103.4 meq/L
- DBIL (6 h): 0.068 mg/dL
- GLC (6 h): 192.8 mg/dL
- IP (6 h): 8.3 mg/dL
- K (6 h): 3.5 meq/L
- LDH (6 h): 207.8 IU/L
- Na (6 h): 140.4 meq/L
- PL (6 h): 103.6 mg/dL
- RALB (6 h): 3.4 g/dL
- TBIL (6 h): 0.1 mg/dL
- TC (6 h): 68.8 mg/dL
- TG (6 h): 24 mg/dL
- TP (6 h): 5.5 g/dL
- gamma-GTP (6 h): 1.4 IU/L
- TERMINAL_BW (9 h): 225.6 g
- APTT (9 h): 19.6 s
- Bas (9 h): 0.6%
- Eos (9 h): 1%
- Fbg (9 h): 226.6 mg/dL
- Hb (9 h): 13.7 g/dL
- Ht (9 h): 39.4%
- Lym (9 h): 71.6%
- MCH (9 h): 21.4 pg
- MCHC (9 h): 34.9%
- MCV (9 h): 61.4 fL
- Mono (9 h): 5%
- Neu (9 h): 20.4%
- PT (9 h): 13.8 s
- Plat (9 h): 122.7 x10_4/uL
- RBC (9 h): 642 x10_4/ul
- Ret (9 h): 6.9%
- WBC (9 h): 78.5 x10_2/uL
- KIDNEY_L (9 h): 1 g
- KIDNEY_R (9 h): 1 g
- KIDNEY_TOTAL (9 h): 2 g
- LIVER (9 h): 9.7 g
- A/G (9 h): 1.6
- ALP (9 h): 795 IU/L
- ALT (9 h): 35.6 IU/L
- AST (9 h): 87.8 IU/L
- BUN (9 h): 14.2 mg/dL
- CRE (9 h): 0.4 mg/dL
- Ca (9 h): 10.3 mg/dL
- Cl (9 h): 103.2 meq/L
- DBIL (9 h): 0.064 mg/dL
- GLC (9 h): 194.4 mg/dL
- IP (9 h): 8.2 mg/dL
- K (9 h): 3.7 meq/L
- LDH (9 h): 267.2 IU/L
- Na (9 h): 141.6 meq/L
- PL (9 h): 110.4 mg/dL
- RALB (9 h): 3.4 g/dL
- TBIL (9 h): 0.1 mg/dL
- TC (9 h): 73.4 mg/dL
- TG (9 h): 28.2 mg/dL
- TP (9 h): 5.5 g/dL
- gamma-GTP (9 h): 1.6 IU/L
- TERMINAL_BW (24 h): 216.1 g
- APTT (24 h): 19 s
- Bas (24 h): 0.8%
- Eos (24 h): 1.2%
- Fbg (24 h): 225.6 mg/dL
- Hb (24 h): 15.1 g/dL
- Ht (24 h): 44.4%
- Lym (24 h): 72.4%
- MCH (24 h): 21 pg
- MCHC (24 h): 34%
- MCV (24 h): 61.7 fL
- Mono (24 h): 6%
- Neu (24 h): 17.8%
- PT (24 h): 17 s
- Plat (24 h): 130.3 x10_4/uL
- RBC (24 h): 720.2 x10_4/ul
- Ret (24 h): 6.5%
- WBC (24 h): 83.1 x10_2/uL
- KIDNEY_L (24 h): 1 g
- KIDNEY_R (24 h): 1 g
- KIDNEY_TOTAL (24 h): 2 g
- LIVER (24 h): 8.2 g
- A/G (24 h): 1.7
- ALP (24 h): 955.6 IU/L
- ALT (24 h): 56.2 IU/L
- AST (24 h): 160 IU/L
- BUN (24 h): 13.4 mg/dL
- CRE (24 h): 0.4 mg/dL
- Ca (24 h): 10.4 mg/dL
- Cl (24 h): 104.2 meq/L
- DBIL (24 h): 0.1 mg/dL
- GLC (24 h): 179.6 mg/dL
- IP (24 h): 8.4 mg/dL
- K (24 h): 4.1 meq/L
- LDH (24 h): 348.8 IU/L
- Na (24 h): 140.6 meq/L
- PL (24 h): 112.2 mg/dL
- RALB (24 h): 3.3 g/dL
- TBIL (24 h): 0.2 mg/dL
- TC (24 h): 65.2 mg/dL
- TG (24 h): 25.6 mg/dL
- TP (24 h): 5.3 g/dL
- gamma-GTP (24 h): 1.8 IU/L

Reference: ChEMBL document CHEMBL3885861, “Open TG-GATES”
